Results from patent publication US9833497B2, “Human originated EGF domain proteins and use of the same” (CHENGDU SOURCEBIO LIMITED-LIABILITY COMPANY, priority 2013, dated 2017).

Experiments:
Assay type in all cases: cell-based
E. coli BL21 = experiment: MIC against Gram-negative bacteria: E. coli BL21; settings: 5×10^5 CFU/mL
Procedure, shortened: (§1)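 MIC = lowest concentration of recombinant protein showing no growth. Test proteins: purified human-derived EGF domain proteins, two-fold dilution series, three wells per concentration; inoculum 5×10^5 CFU/mL in LB; incubation 37° C with shaking at 175 rpm.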

E. coli DH5α = experiment: Antibacterial activity: MIC and growth curve against E. coli DH5α in 96-well plate; settings: minimal inhibitory concentration against E. coli DH5α; 96-well plate, 5×10^5 CFU/mL, 37° C., judged after 8 h
Procedure, shortened: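 MIC taken as lowest protein level with no bacterial growth, tracked by A600 every 30 min during 37 °C, 175 rpm culture. Two-fold protein series 50-12.5 μg/mL final, triplicate wells, against 5×10^5 CFU/mL of LB-washed mid-log cells.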

Aeromonas hydrophila = experiment: MIC against Gram-negative bacteria: Aeromonas hydrophila; settings: 5×10^5 CFU/mL
Procedure, shortened: as §1

Enterobacter cloacae = experiment: MIC against Gram-negative bacteria: Enterobacter cloacae; settings: 5×10^5 CFU/mL
Procedure, shortened: as §1

Proteus mirabilis = experiment: MIC against Gram-negative bacteria: Proteus mirabilis; settings: 5×10^5 CFU/mL
Procedure, shortened: as §1

Klebsiella pneumonia = experiment: MIC against Gram-negative bacteria: Klebsiella pneumonia; settings: 5×10^5 CFU/mL
Procedure, shortened: as §1

Serratia marcescens = experiment: MIC against Gram-negative bacteria: Serratia marcescens; settings: 5×10^5 CFU/mL
Procedure, shortened: as §1

Citrobacter diversus = experiment: MIC against Gram-negative bacteria: Citrobacter diversus; settings: 5×10^5 CFU/mL
Procedure, shortened: as §1

Proteus vulgaris = experiment: MIC against Gram-negative bacteria: Proteus vulgaris; settings: 5×10^5 CFU/mL
Procedure, shortened: as §1

Pseudomonas aeruginosa = experiment: MIC against Gram-negative bacteria: Pseudomonas aeruginosa; settings: 5×10^5 CFU/mL
Procedure, shortened: as §1

Moraxella catarrhalis = experiment: MIC against Gram-negative bacteria: Moraxella catarrhalis; settings: 5×10^5 CFU/mL
Procedure, shortened: as §1

[1] = 10 h cultivation at 37° C., two-fold serial dilution
[2] = E. coli BL21, 10 h cultivation at 37° C.
[3] = A. hydrophila, 10 h cultivation at 37° C.
[4] = E. cloacae, 10 h cultivation at 37° C.
[5] = P. mirabilis, 10 h cultivation at 37° C.
[6] = K. pneumonia, 10 h cultivation at 37° C.
[7] = S. marcescens, 10 h cultivation at 37° C.
[8] = C. diversus, 10 h cultivation at 37° C.
[9] = P. vulgaris, 10 h cultivation at 37° C.
[10] = P. aeruginosa, 10 h cultivation at 37° C.
[11] = M. catarrhalis, 10 h cultivation at 37° C.

“PRT1145 (KINDCTSIPCMNEGFCQKSAHGFTCICPRGYTGAYCE; listed as Homo sapiens)” was tested, and the “MIC E. coli BL21” value (E. coli BL21; [1]) was 25 µg/mL, the MIC (E. coli DH5α) was 12.5 µg/mL and the “MIC A. hydrophila” value (Aeromonas hydrophila; [1]) was 12.5 µg/mL. For the same substance, the “MIC E. cloacae” value (Enterobacter cloacae; [1]) was 12.5 µg/mL, the “MIC P. mirabilis” value (Proteus mirabilis; [1]) was 50 µg/mL and the “MIC K. pneumonia” value (Klebsiella pneumonia; [1]) was 12.5 µg/mL. For the same substance, the “MIC S. marcescens” value (Serratia marcescens; [1]) was 12.5 µg/mL, the “MIC C. diversus” value (Citrobacter diversus; [1]) was 12.5 µg/mL and the “MIC P. vulgaris” value (Proteus vulgaris; [1]) was 25 µg/mL. The “MIC P. aeruginosa” value (Pseudomonas aeruginosa; [1]) was 12.5 µg/mL and the “MIC M. catarrhalis” value (Moraxella catarrhalis; [1]) was 12.5 µg/mL.

“PRT415 (DINECLSISAPCPIGHTCINTEGSYTCQKNVPNCGRGYHLNEEGTRCV; listed as Homo sapiens)” showed an MIC (E. coli BL21; [2]) of 12.5 µg/mL, an MIC (E. coli DH5α) of 25 µg/mL and an MIC (Aeromonas hydrophila; [3]) of 12.5 µg/mL. It also gave an MIC (Enterobacter cloacae; [4]) of 25 µg/mL, an MIC (Proteus mirabilis; [5]) of 25 µg/mL and an MIC (Klebsiella pneumonia; [6]) of 50 µg/mL. The MIC (Serratia marcescens; [7]) was 25 µg/mL, the MIC (Citrobacter diversus; [8]) was 25 µg/mL and the MIC (Proteus vulgaris; [9]) was 12.5 µg/mL. The MIC (Pseudomonas aeruginosa; [10]) was 25 µg/mL and the MIC (Moraxella catarrhalis; [11]) was 50 µg/mL.

For “PRT567 (CTCDPAGSQNEGICDSYTDFSTGLIAGQCRCKLNVEGEHCDVCKEGFYDLSSEDPFGCKS; listed as Homo sapiens)”, the “MIC against E. coli BL21” value (E. coli BL21; 96-well plate, 37° C., 10 h) was 25 µg/mL, the MIC (E. coli DH5α) was 50 µg/mL and the “MIC against A. hydrophila” value (Aeromonas hydrophila; 96-well plate, 37° C., 10 h) was 25 µg/mL. The “MIC against E. cloacae” value (Enterobacter cloacae; 96-well plate, 37° C., 10 h) was 50 µg/mL, the “MIC against P. mirabilis” value (Proteus mirabilis; 96-well plate, 37° C., 10 h) was 12.5 µg/mL and the “MIC against K. pneumonia” value (Klebsiella pneumonia; 96-well plate, 37° C., 10 h) was 25 µg/mL. The “MIC against S. marcescens” value (Serratia marcescens; 96-well plate, 37° C., 10 h) was 12.5 µg/mL, the “MIC against C. diversus” value (Citrobacter diversus; 96-well plate, 37° C., 10 h) was 12.5 µg/mL and the “MIC against P. vulgaris” value (Proteus vulgaris; 96-well plate, 37° C., 10 h) was 12.5 µg/mL. For the same substance, the “MIC against P. aeruginosa” value (Pseudomonas aeruginosa; 96-well plate, 37° C., 10 h) was 12.5 µg/mL and the “MIC against M. catarrhalis” value (Moraxella catarrhalis; 96-well plate, 37° C., 10 h) was 50 µg/mL.

In the case of “PRT1057 (DIDECEMGVPVCPPASSKCINTEGGYVCRCSEGYQGDGIHCL; listed as Homo sapiens)”, the “MIC E. coli BL21” value (E. coli BL21; [1]) is reported as 50 µg/mL, the MIC (E. coli DH5α) is reported as 25 µg/mL and the “MIC A. hydrophila” value (Aeromonas hydrophila; [1]) is reported as 50 µg/mL. The “MIC E. cloacae” value (Enterobacter cloacae; [1]) was 25 µg/mL, the “MIC P. mirabilis” value (Proteus mirabilis; [1]) was 25 µg/mL and the “MIC K. pneumonia” value (Klebsiella pneumonia; [1]) was 12.5 µg/mL. For the same substance, the “MIC S. marcescens” value (Serratia marcescens; [1]) was 25 µg/mL, the “MIC C. diversus” value (Citrobacter diversus; [1]) was 25 µg/mL and the “MIC P. vulgaris” value (Proteus vulgaris; [1]) was 50 µg/mL. The “MIC P. aeruginosa” value (Pseudomonas aeruginosa; [1]) was 25 µg/mL and the “MIC M. catarrhalis” value (Moraxella catarrhalis; [1]) was 12.5 µg/mL.

In the case of “PRT766 (GKDQCAEGGHGCQHQCVNAWAMFHCTCNPGYKLAADNKSCL; listed as Homo sapiens)”, the “MIC (μg/mL) E. coli BL21” value (E. coli BL21; [2]) is reported as 50 µg/mL, the MIC (E. coli DH5α) is reported as 25 µg/mL and the “MIC (μg/mL) A. hydrophila” value (Aeromonas hydrophila; [3]) is reported as 25 µg/mL. The “MIC (μg/mL) E. cloacae” value (Enterobacter cloacae; [4]) was 50 µg/mL, the “MIC (μg/mL) P. mirabilis” value (Proteus mirabilis; [5]) was 50 µg/mL and the “MIC (μg/mL) K. pneumonia” value (Klebsiella pneumonia; [6]) was 12.5 µg/mL. The “MIC (μg/mL) S. marcescens” value (Serratia marcescens; [7]) was 12.5 µg/mL, the “MIC (μg/mL) C. diversus” value (Citrobacter diversus; [8]) was 12.5 µg/mL and the “MIC (μg/mL) P. vulgaris” value (Proteus vulgaris; [9]) was 25 µg/mL. For the same substance, the “MIC (μg/mL) P. aeruginosa” value (Pseudomonas aeruginosa; [10]) was 25 µg/mL and the “MIC (μg/mL) M. catarrhalis” value (Moraxella catarrhalis; [11]) was 25 µg/mL.

For “PRT724 (DINECEQFGTCPQHCRNTKGSYECVCADGFTSMSDRPGKRCA; listed as Homo sapiens)”, the “MIC E. coli BL21” value (E. coli BL21; 96-well plate, 37° C., 10 h) was 12.5 µg/mL, the MIC (E. coli DH5α) was 12.5 µg/mL and the “MIC A. hydrophila” value (Aeromonas hydrophila; 96-well plate, 37° C., 10 h) was 12.5 µg/mL. The “MIC E. cloacae” value (Enterobacter cloacae; 96-well plate, 37° C., 10 h) was 25 µg/mL, the “MIC P. mirabilis” value (Proteus mirabilis; 96-well plate, 37° C., 10 h) was 25 µg/mL and the “MIC K. pneumonia” value (Klebsiella pneumonia; 96-well plate, 37° C., 10 h) was 12.5 µg/mL. The “MIC S. marcescens” value (Serratia marcescens; 96-well plate, 37° C., 10 h) was 25 µg/mL, the “MIC C. diversus” value (Citrobacter diversus; 96-well plate, 37° C., 10 h) was 25 µg/mL and the “MIC P. vulgaris” value (Proteus vulgaris; 96-well plate, 37° C., 10 h) was 12.5 µg/mL. For the same substance, the “MIC P. aeruginosa” value (Pseudomonas aeruginosa; 96-well plate, 37° C., 10 h) was 12.5 µg/mL and the “MIC M. catarrhalis” value (Moraxella catarrhalis; 96-well plate, 37° C., 10 h) was 12.5 µg/mL.

“PRT1146 (SIDNCAEPELNSVICLNGGICVDGPGHTFDCRCLPGFSGQFCE; listed as Homo sapiens)” was tested, and the “MIC E. coli BL21” value (E. coli BL21; [1]) was 25 µg/mL, the MIC (E. coli DH5α) was 50 µg/mL and the “MIC A. hydrophila” value (Aeromonas hydrophila; [1]) was 12.5 µg/mL. For the same substance, the “MIC E. cloacae” value (Enterobacter cloacae; [1]) was 50 µg/mL, the “MIC P. mirabilis” value (Proteus mirabilis; [1]) was 12.5 µg/mL and the “MIC K. pneumonia” value (Klebsiella pneumonia; [1]) was 25 µg/mL. The “MIC S. marcescens” value (Serratia marcescens; [1]) was 12.5 µg/mL, the “MIC C. diversus” value (Citrobacter diversus; [1]) was 25 µg/mL and the “MIC P. vulgaris” value (Proteus vulgaris; [1]) was 50 µg/mL. The “MIC P. aeruginosa” value (Pseudomonas aeruginosa; [1]) was 12.5 µg/mL and the “MIC M. catarrhalis” value (Moraxella catarrhalis; [1]) was 50 µg/mL.

“PRT1368 (EKRCPGDCSGHGFCDTGECYCEEGFTGLDCA; listed as Homo sapiens)” was tested, and the “MIC against E. coli BL21” value (E. coli BL21; [2]) was 25 µg/mL, the MIC (E. coli DH5α) was 12.5 µg/mL and the “MIC against A. hydrophila” value (Aeromonas hydrophila; Aeromonas hydrophila, 10 h cultivation at 37° C.) was 25 µg/mL. The “MIC against E. cloacae” value (Enterobacter cloacae; Enterobacter cloacae, 10 h cultivation at 37° C.) was 12.5 µg/mL, the “MIC against P. mirabilis” value (Proteus mirabilis; Proteus mirabilis, 10 h cultivation at 37° C.) was 12.5 µg/mL and the “MIC against K. pneumonia” value (Klebsiella pneumonia; Klebsiella pneumonia, 10 h cultivation at 37° C.) was 25 µg/mL. For the same substance, the “MIC against S. marcescens” value (Serratia marcescens; Serratia marcescens, 10 h cultivation at 37° C.) was 12.5 µg/mL, the “MIC against C. diversus” value (Citrobacter diversus; Citrobacter diversus, 10 h cultivation at 37° C.) was 12.5 µg/mL and the “MIC against P. vulgaris” value (Proteus vulgaris; Proteus vulgaris, 10 h cultivation at 37° C.) was 12.5 µg/mL. The “MIC against P. aeruginosa” value (Pseudomonas aeruginosa; Pseudomonas aeruginosa, 10 h cultivation at 37° C.) was 12.5 µg/mL and the “MIC against M. catarrhalis” value (Moraxella catarrhalis; Moraxella catarrhalis, 10 h cultivation at 37° C.) was 12.5 µg/mL.
